From patent publication US20220324835A1 (Nurix Therapeutics, Inc., priority 2018, published 2022)

What was measured:
Format in all cases: cell-based
[1] = system: primary human total T-cells; assay: T-cell activation assessed by cytokine secretion (GM-CSF, IFNγ, TNFα)
Outline: (§1)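 Readouts are fold change versus compound-free cells under the same stimulation: plate-bound anti-CD3 (OKT3, 10 μg/mL coating) alone or with soluble anti-CD28 at 5 μg/mL, for 48 h. Isolated human total T cells (1×10^5/well) got inhibitor 1 h beforehand at concentrations such as 10, 1.11 or 0.123 μM. Measured: GM-CSF/IFNγ/TNFα secretion, surface CD69, proliferation by dye dilution.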

[2] = system: primary human total T-cells; assay: T-cell activation assessed by cell proliferation (Cell Trace Violet)
Outline: as §1

anergic human T-cells = assay: Anergic T-cell activation assessed by IFNγ secretion (ionomycin-induced anergy); conditions: anergic T-cells re-challenged with anti-CD3 and anti-CD28 for 24 hours, read-out: IFNγ Fold change from baseline
Outline: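 Human primary T-cells (>95% CD3+) were activated with anti-CD3/anti-CD28 for 2 days, rested 3 days, then made anergic with ionomycin for 18-24 h. Compound (e.g. 10, 1.11, 0.37 μM) was added for 1 h before 24 h anti-CD3/CD28 re-challenge; IFNγ by ELISA or Luminex as fold over untreated anergic baseline, binned A ≤2.50, B 2.51-4.00, C >4.01.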

[3] = CD3/CD28 stimulation, read-out: GM-CSF secretion
[4] = CD3/CD28 stimulation, read-out: IFNγ secretion
[5] = CD3/CD28 stimulation, read-out: TNFα secretion
[6] = CD3 alone stimulation, read-out: GM-CSF secretion
[7] = CD3 alone stimulation, read-out: IFNγ secretion
[8] = CD3 alone stimulation, read-out: TNFα secretion
[9] = CD3/CD28 stimulation, CD4 T-cells, read-out: % CP (cell proliferation) (CD4)
[10] = CD3/CD28 stimulation, CD8 T-cells, read-out: % CP (cell proliferation) (CD8)
[11] = CD3 alone stimulation, CD8 T-cells, read-out: % CP (cell proliferation) (CD8)

Cn1cnnc1[C@@H]1C[C@@H]1c1cccc(N2Cc3c(ccnc3C(F)(F)F)C2=O)c1 [Compound 369, 2-{3-[(1S,2R)-2-(4-methyl-4H-1,2,4-triazol-3-yl)cyclopropyl]phenyl}-4-(trifluoromethyl)-1H,2H,3H-pyrrolo[3,4-c]pyridin-1-one]
fold induction at 1.11 µM [1, 3]: ≤ 1.5 | fold induction at 1.11 µM [1, 4]: < 2 | fold induction at 1.11 µM [1, 5]: ≤ 1.5 | fold induction at 10 µM [1, 3]: 2.01 to 4 | fold induction at 10 µM [1, 4]: < 2 | fold induction at 10 µM [1, 5]: 2.01 to 4 | fold induction at 1.11 µM [1, 6]: ≤ 1.5 | fold induction at 1.11 µM [1, 7]: < 2 | fold induction at 1.11 µM [1, 8]: ≤ 1.5 | fold induction at 10 µM [1, 6]: ≤ 1.5 | fold induction at 10 µM [1, 7]: < 2 | fold induction at 10 µM [1, 8]: 1.51 to 2 | fold induction at 1.11 µM [2, 9]: < 2 | fold induction at 10 µM [2, 9]: > 4 | fold induction at 1.11 µM [2, 10]: < 2 | fold induction at 10 µM [2, 10]: 2.01 to 3 | fold induction at 1.11 µM [2, 11]: < 2 | fold induction at 10 µM [2, 11]: < 2 | fold induction at 0.37 µM (anergic human T-cells): ≤ 2.5 | fold induction at 1.11 µM (anergic human T-cells): ≤ 2.5 | fold induction at 10 µM (anergic human T-cells): 2.51 to 4

C[C@H](Sc1nncn1C)c1cccc(NC(=O)c2cc(C(=O)N3CC[C@H](O)C3)ccn2)c1 [Compound 140, 4-[[(3S)-3-hydroxypyrrolidin-1-yl]carbonyl]-N-[3-[(1S)-1-[(4-methyl-4H-1,2,4-triazol-3-yl)sulfanyl]ethyl]phenyl]pyridine-2-carboxamide]
fold induction at 1.11 µM [1, 3]: 2.01 to 4 | fold induction at 1.11 µM [1, 4]: 2.01 to 3 | fold induction at 1.11 µM [1, 5]: 2.01 to 4 | fold induction at 10 µM [1, 3]: > 4 | fold induction at 10 µM [1, 4]: > 4 | fold induction at 10 µM [1, 5]: 2.01 to 4 | fold induction at 1.11 µM [1, 6]: 2.01 to 4 | fold induction at 1.11 µM [1, 7]: 3.01 to 4 | fold induction at 1.11 µM [1, 8]: 1.51 to 2 | fold induction at 10 µM [1, 6]: 2.01 to 4 | fold induction at 10 µM [1, 7]: > 4 | fold induction at 10 µM [1, 8]: 2.01 to 4 | fold induction at 1.11 µM [2, 9]: > 4 | fold induction at 10 µM [2, 9]: > 4 | fold induction at 1.11 µM [2, 10]: > 4 | fold induction at 10 µM [2, 10]: > 4 | fold induction at 1.11 µM [2, 11]: > 4 | fold induction at 10 µM [2, 11]: > 4 | fold induction at 0.37 µM (anergic human T-cells): ≤ 2.5 | fold induction at 1.11 µM (anergic human T-cells): ≤ 2.5 | fold induction at 10 µM (anergic human T-cells): 2.51 to 4

C[C@H](Cc1nncn1C)c1cccc(NC(=O)c2cccc(CCO)n2)c1 [Compound 202, 6-(2-hydroxyethyl)-N-[3-[(2R)-1-(4-methyl-4H-1,2,4-triazol-3-yl)propan-2-yl]phenyl]pyridine-2-carboxamide]
fold induction at 1.11 µM [1, 3]: ≤ 1.5 | fold induction at 1.11 µM [1, 4]: < 2 | fold induction at 1.11 µM [1, 5]: ≤ 1.5 | fold induction at 10 µM [1, 3]: 1.51 to 2 | fold induction at 10 µM [1, 4]: > 4 | fold induction at 10 µM [1, 5]: 1.51 to 2 | fold induction at 1.11 µM [1, 6]: ≤ 1.5 | fold induction at 1.11 µM [1, 7]: < 2 | fold induction at 1.11 µM [1, 8]: ≤ 1.5 | fold induction at 10 µM [1, 6]: 1.51 to 2 | fold induction at 10 µM [1, 7]: < 2 | fold induction at 10 µM [1, 8]: ≤ 1.5 | fold induction at 1.11 µM [2, 9]: < 2 | fold induction at 10 µM [2, 9]: 3.01 to 4 | fold induction at 1.11 µM [2, 10]: < 2 | fold induction at 10 µM [2, 10]: 2.01 to 3 | fold induction at 1.11 µM [2, 11]: < 2 | fold induction at 10 µM [2, 11]: < 2 | fold induction at 0.37 µM (anergic human T-cells): ≤ 2.5 | fold induction at 1.11 µM (anergic human T-cells): ≤ 2.5 | fold induction at 10 µM (anergic human T-cells): 2.51 to 4
